The test can be described thus: Inhibition of p300/CBP HAT (unknown origin) by scintillation proximity assay. Further details: species or system Homo sapiens.

As for `CC(=O)N1CC(Oc2ccc(NC(=O)[C@H](NC[C@@H](C)c3ccc(C#N)cc3)c3ccccc3)nc2)C1`, it took 21.2 nM to reach half-maximal inhibition (IC50). To `CN1CCC(Oc2ccc(NC(=O)[C@H](NCCc3ccc(Cl)cc3)c3ccccc3)nc2)CC1` belongs 26.6 nM; to `CC(CN[C@H](C(=O)Nc1ccc(OC2CCN(C(=O)C3CC3)CC2)cn1)c1ccccc1)c1ccc(C#N)cc1` (stereo partly specified), 26.7 nM; to `Cn1cc(COc2ccc(NC(=O)[C@@H](NCCc3ccc(Cl)cc3)c3ccccc3)nc2)cn1`, 16.8 nM. To `CC(=O)N1CC(Oc2ccc(NC(=O)[C@@H](NC[C@@H](C)c3ccc(C#N)cc3)c3ccccc3)nc2)C1` belongs 14 nM; to `CC(=O)N1CC(Oc2ccc(NC(=O)[C@H](NCC(C)c3ccc(C#N)cc3)c3cccc(F)c3)nc2)C1` (stereo partly specified), 23.3 nM.

The record behind these values is ChEMBL document CHEMBL4825741, “Novel Histone Acetyltransferase (HAT) Inhibitors for Treating Diseases” (ACS Med Chem Lett, 2021).
